pEC50: −log10 of the molar value.

In the first assay the target is T1, Solute carrier family 12 member 5 (Homo sapiens, UniProt Q9H2X9).
T1 sequence (Q9H2X9 whole entry): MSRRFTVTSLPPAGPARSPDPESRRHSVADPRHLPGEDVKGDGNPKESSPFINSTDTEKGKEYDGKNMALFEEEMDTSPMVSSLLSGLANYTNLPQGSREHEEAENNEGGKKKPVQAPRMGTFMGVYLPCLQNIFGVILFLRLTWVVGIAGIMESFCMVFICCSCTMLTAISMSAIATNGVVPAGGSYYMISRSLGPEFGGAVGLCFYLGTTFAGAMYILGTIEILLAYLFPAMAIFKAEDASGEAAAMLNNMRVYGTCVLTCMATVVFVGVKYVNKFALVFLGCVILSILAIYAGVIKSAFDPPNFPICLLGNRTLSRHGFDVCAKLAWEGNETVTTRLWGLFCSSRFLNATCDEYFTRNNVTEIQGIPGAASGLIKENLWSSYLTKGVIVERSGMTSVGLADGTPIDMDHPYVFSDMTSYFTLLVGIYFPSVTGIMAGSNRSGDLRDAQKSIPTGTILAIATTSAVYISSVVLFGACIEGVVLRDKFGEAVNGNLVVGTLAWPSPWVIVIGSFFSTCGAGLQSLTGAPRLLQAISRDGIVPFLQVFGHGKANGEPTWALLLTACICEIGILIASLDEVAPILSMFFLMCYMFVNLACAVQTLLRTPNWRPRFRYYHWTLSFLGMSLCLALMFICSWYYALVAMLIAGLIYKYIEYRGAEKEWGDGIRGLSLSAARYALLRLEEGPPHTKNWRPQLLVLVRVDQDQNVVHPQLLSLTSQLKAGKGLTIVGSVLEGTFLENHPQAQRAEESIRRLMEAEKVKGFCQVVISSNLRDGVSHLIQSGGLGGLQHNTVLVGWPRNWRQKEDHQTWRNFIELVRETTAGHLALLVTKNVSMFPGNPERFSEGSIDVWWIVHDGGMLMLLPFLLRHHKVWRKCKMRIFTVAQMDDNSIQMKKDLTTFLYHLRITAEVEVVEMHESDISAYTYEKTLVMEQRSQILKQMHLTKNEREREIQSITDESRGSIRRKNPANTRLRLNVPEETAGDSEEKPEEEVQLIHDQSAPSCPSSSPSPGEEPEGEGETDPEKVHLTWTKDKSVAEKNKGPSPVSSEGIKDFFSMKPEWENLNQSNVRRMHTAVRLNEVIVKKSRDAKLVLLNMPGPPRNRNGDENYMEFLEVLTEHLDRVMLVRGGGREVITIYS
Put plainly: modulation of KCC2 K-Cl transport – cell-based, assay 2, dose response (AID 1723).
Conditions: not given
For orientation: pEC50 means the EC50 on a negative log10 scale, so that one unit is a factor of ten. In the case of `Cc1nn(-c2nc3ccccc3[nH]2)c(N)c1-c1ccccc1` [MLS000063763], the pEC50 is 5.73.

Consider `Oc1ccccc1CN=Nc1nc2ccccc2o1` [(6E)-6-[(1,3-benzoxazol-2-ylhydrazo)methylidene]-1-cyclohexa-2,4-dienone], for which the pEC50 is 4.34.

With `O=C(NC(=S)Nc1nc(-c2cccc([N+](=O)[O-])c2)cs1)c1ccccc1Cl` [2-chloranyl-N-[[4-(3-nitrophenyl)-1,3-thiazol-2-yl]carbamothioyl]benzamide], the pEC50 is 3.61.

Regarding `COC(=O)c1sccc1NC(=S)OC` [3-(methoxycarbothioylamino)thiophene-2-carboxylic acid methyl ester], the pEC50 is 5.76. Compared with the last molecule, the pEC50 is 2.15 log units higher.

`O=[N+]([O-])c1ccccc1C=C[CH+][N-]n1c(-c2ccc(Cl)cc2)n[nH]c1=S` [MLS000555506] gave a negative logarithm of the EC50 (pEC50) of 4.27.

Molecule `COC(=O)[C@@H](NC(=O)O[C@@H]1C(=O)c2ccc(OC)cc2O[C@H]1c1cccc(C(F)(F)F)c1)C(C)C` [(2S)-2-[[(2S,3S)-4-keto-7-methoxy-2-[3-(trifluoromethyl)phenyl]chroman-3-yl]oxycarbonylamino]-3-methyl-butyric acid methyl ester] had a pEC50 of 6.00.

`O=c1c2ccccc2[nH]c(=S)n1CCN1CCC(=C(c2ccc(F)cc2)c2ccc(F)cc2)CC1` [SMR000058550] had a pEC50 of 4.59.

On to `Cc1[nH]n2c(=O)cc(C(C)C)nc2c1-c1ccccc1`, for which the pEC50 is 4.89.

Turning to `CC(=O)c1cccc(NC(=S)NC(=O)c2ccc(C)cc2)c1` [MLS000687464], the pEC50 is 5.73. Against the preceding molecule, the pEC50 is 0.84 log units higher.

Molecule `O=[N+]([O-])c1ccc(-c2cn(-c3ccccc3F)c(=S)[nH]2)cc1` had a pEC50 of 6.26.

`S=c1nc(-c2ccc3c(c2)CCO3)cc[nH]1`: the pEC50 was 5.09.

`CCOc1[nH]n(-c2ccccc2)c(=O)c1C=Nc1ccc(F)cc1F` [(4E)-4-[[[2,4-bis(fluoranyl)phenyl]amino]methylidene]-5-ethoxy-2-phenyl-pyrazol-3-one] had a pEC50 of 5.23.

`CCOc1ccc2nc(Sc3cc(O)n(-c4cccc(OC)c4)c3O)sc2c1` [3-(6-Ethoxy-benzothiazol-2-ylsulfanyl)-1-(3-methoxy-phenyl)-pyrrolidine-2,5-dione]: the negative logarithm of the EC50 (pEC50) was 4.85. This pEC50 lies 0.38 log units lower than the previous one.

`Fc1cccc(F)c1C=NNC(=S)Nc1cccnc1` [1-[(2,6-difluorobenzylidene)amino]-3-(3-pyridyl)thiourea] gave a pEC50 of 4.85.

Consider `CNc1ccc2oc(C[C@H]3O[C@@]4(CC[C@H]3C)O[C@H]([C@H](C)C(=O)c3ccc[nH]3)[C@H](C)C[C@H]4C)nc2c1C(=O)O` [MLS001056783], for which the pEC50 was 4.81.

In turn, `COc1cc(NC(=S)NC(=O)c2ccco2)ccc1NC(=O)C(C)C` [MLS000672338] had a pEC50 of 4.85.

Molecule `N=C1SCC(=O)N1c1ncc(Cc2cccc(Cl)c2)s1` [2-azanylidene-3-[5-[(3-chlorophenyl)methyl]-1,3-thiazol-2-yl]-1,3-thiazolidin-4-one] gave a pEC50 of 5.59.

`NC(=S)NN=C1C(=O)N(Cc2ccc(F)cc2)c2ccccc21` [1-[(Z)-[1-[(4-fluorophenyl)methyl]-2-oxidanylidene-indol-3-ylidene]amino]thiourea] gave a pEC50 of 5.64.

In turn, `S=C(NCCc1ccccc1)NN=Cc1cccc(Cl)c1Cl` [1-[(2,3-dichlorobenzylidene)amino]-3-phenethyl-thiourea] had a pEC50 of 4.95.

Still in this assay, the particulars now being: inactive by the depositor's call.
As to `Cc1noc(/C=C/N(C)C)c1S(=O)(=O)N(C)CC(=O)NC1CCCCC1` [MLS000047204], the pEC50 was 6.21.

In turn, `Cc1ccc(Cn2c(SCC(=O)Nc3cc(C)on3)nc3ccccc3c2=O)cc1` [2-[[4-keto-3-(4-methylbenzyl)quinazolin-2-yl]thio]-N-(5-methylisoxazol-3-yl)acetamide] had a pEC50 of 3.86.

Source of the values: BindingDB's records for doi:10.7270/Q2PN942B (Vanderbilt Screening Center for GPCRs, Ion Channels and …, 2009).
